In patent US20190134005A1 (BioMarin Pharmaceutical Inc., priority 2016, published 2019):

Target: T1, human CGT (Homo sapiens, UniProt Q16880)
T1 sequence (Q16880 21-541): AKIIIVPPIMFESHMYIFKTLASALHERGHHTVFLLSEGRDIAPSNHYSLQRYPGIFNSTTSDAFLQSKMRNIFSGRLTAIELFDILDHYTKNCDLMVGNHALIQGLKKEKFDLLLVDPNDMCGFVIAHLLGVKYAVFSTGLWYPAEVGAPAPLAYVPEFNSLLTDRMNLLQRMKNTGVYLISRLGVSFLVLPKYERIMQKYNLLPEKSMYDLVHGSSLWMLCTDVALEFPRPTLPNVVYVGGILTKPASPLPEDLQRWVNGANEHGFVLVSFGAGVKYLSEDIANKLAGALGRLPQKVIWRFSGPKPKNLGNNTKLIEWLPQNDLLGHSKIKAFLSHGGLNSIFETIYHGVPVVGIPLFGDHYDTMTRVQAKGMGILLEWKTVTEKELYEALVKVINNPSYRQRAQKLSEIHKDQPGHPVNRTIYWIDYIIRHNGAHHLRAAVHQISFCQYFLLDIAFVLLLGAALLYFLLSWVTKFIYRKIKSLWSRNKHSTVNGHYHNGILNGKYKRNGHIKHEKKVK
Assay: Assay 1: CGT Enzymatic Assay (RapidFire/MS/MS, 0.01% Tween 80)
Type: biochemical
Details: Table 1, Compounds of Formula (I) and Formula (II); CGT enzymatic assay; read-out: IC50

IC50 | Compound
< 1000 nM | N#Cc1cccc(C2(O)N(c3ccc(Cl)cc3)C(=O)N(c3ccc(Cl)cc3)C23COC3)c1 (centres unmarked) [Compound 151, 3-(5,7-bis(4-chlorophenyl)-8-hydroxy-6-oxo-2-oxa-5,7-diazaspiro[3.4]octan-8-yl)benzonitrile]
50000 to 100000 nM | CCCCC1(O)C(=O)N(c2ccc(Br)cc2)C(=O)N1c1ccc(Br)cc1 (centres unmarked) [Compound 152, 1,3-bis(4-bromophenyl)-5-butyl-5-hydroxyimidazolidine-2,4-dione]
> 50000 nM | CC(C)c1ccc(C2(O)C(=O)N(c3ccccc3)C(=O)N2c2ccccc2)cc1 (centres unmarked) [Compound 153, 5-hydroxy-5-(4-isopropylphenyl)-1,3-diphenylimidazolidine-2,4-dione]
50000 to 100000 nM | O=C1N(c2ccc(Cl)cc2)C(=O)C(O)(c2ccc(Cl)cc2)N1c1ccc(Cl)cc1 (centres unmarked) [Compound 154, 1,3,5-tris(4-chlorophenyl)-5-hydroxyimidazolidine-2,4-dione]
> 50000 nM | O=C1N(c2ccc(Cl)cc2F)C(=O)C(O)(c2ccccc2)N1c1ccc(Cl)cc1F (centres unmarked) [Compound 155, 1,3-bis(4-chloro-2-fluorophenyl)-5-hydroxy-5-phenylimidazolidine-2,4-dione]
> 50000 nM | O=C1N(c2ccccc2)C(=O)C(O)(c2ccc(OC3CC3)cc2)N1c1ccccc1 (centres unmarked) [Compound 156, 5-(4-cyclopropoxyphenyl)-5-hydroxy-1,3-diphenylimidazolidine-2,4-dione]
< 1000 nM | O=C1N(c2ccc(Cl)cc2)C(C2CC2)C(O)(c2cccc(OC(F)F)c2)N1c1ccc(Cl)cc1 (centres unmarked) [Compound 233, 1,3-bis(4-chlorophenyl)-5-cyclopropyl-4-(3-(difluoromethoxy)phenyl)-4-hydroxyimidazolidin-2-one]
< 1000 nM | O=C1N(c2ccc(Cl)cc2)[C@@H](C2CC2)C(O)(c2cccc(OC(F)F)c2)N1c1ccc(Cl)cc1 (stereo partly drawn) [Compound 233-1, (5S)-1,3-bis(4-chlorophenyl)-5-cyclopropyl-4-(3-(difluoromethoxy)phenyl)-4-hydroxyimidazolidin-2-one]
< 1000 nM | O=C1N(c2ccc(Cl)cc2)[C@H](C2CC2)C(O)(c2cccc(OC(F)F)c2)N1c1ccc(Cl)cc1 (stereo partly drawn) [Compound 233-2, (5R)-1,3-bis(4-chlorophenyl)-5-cyclopropyl-4-(3-(difluoromethoxy)phenyl)-4-hydroxyimidazolidin-2-one]
< 1000 nM | O=C1N(c2ccc(Cl)cc2)C2(CCOC2)C(O)(c2cccc(OC(F)(F)F)c2)N1c1ccc(Cl)cc1 (centres unmarked) [Compound 234, 1,3-bis(4-chlorophenyl)-4-hydroxy-4-(3-(trifluoromethoxy)phenyl)-7-oxa-1,3-diazaspiro[4.4]nonan-2-one]
< 1000 nM | O=C1N(c2ccc(Cl)cc2)[C@]2(CCOC2)[C@](O)(c2cccc(OC(F)(F)F)c2)N1c1ccc(Cl)cc1 [Compound 234-1, (4R,5S)-1,3-bis(4-chlorophenyl)-4-hydroxy-4-(3-(trifluoromethoxy)phenyl)-7-oxa-1,3-diazaspiro[4.4]nonan-2-one]
< 1000 nM | O=C1N(c2ccc(Cl)cc2)[C@]2(CCOC2)[C@@](O)(c2cccc(OC(F)(F)F)c2)N1c1ccc(Cl)cc1 [Compound 234-2, (4S,5S)-1,3-bis(4-chlorophenyl)-4-hydroxy-4-(3-(trifluoromethoxy)phenyl)-7-oxa-1,3-diazaspiro[4.4]nonan-2-one]
< 1000 nM | O=C1N(c2ccc(Cl)cc2)[C@@]2(CCOC2)[C@](O)(c2cccc(OC(F)(F)F)c2)N1c1ccc(Cl)cc1 [Compound 234-3, (4R,5R)-1,3-bis(4-chlorophenyl)-4-hydroxy-4-(3-(trifluoromethoxy)phenyl)-7-oxa-1,3-diazaspiro[4.4]nonan-2-one]
< 1000 nM | O=C1N(c2ccc(Cl)cc2)[C@@]2(CCOC2)[C@@](O)(c2cccc(OC(F)(F)F)c2)N1c1ccc(Cl)cc1 [Compound 234-4, (4S,5R)-1,3-bis(4-chlorophenyl)-4-hydroxy-4-(3-(trifluoromethoxy)phenyl)-7-oxa-1,3-diazaspiro[4.4]nonan-2-one]
